Laboratory results as given in PMC10747733, “N-Substituted 2-(Benzenosulfonyl)-1-Carbotioamide Derivatives Exert Antimicrobial and Cytotoxic Effects via Aldehyde Dehydrogenase Pathway: Synthesis, In Silico and In Vitro Studies” (Pharmaceuticals, 2023).
Values after ≈ are worked out from the molar mass of the structure shown.

Columns and labels:
Test in all cases: Broth microdilution antimicrobial activity
Type in all cases: cell-based
[1] = test system: Bacillus cereus ATCC 10876
Description: (§1) Reference strains of microorganisms that came from American Type Culture Collection (ATCC) (Manassas, VA, USA) were used for this study. The representative Gram-positive bacteria were as follows: Staphylococcus aureus ATCC 25923, Staphylococcus aureus ATCC 29213, Staphylococcus aureus ATCC 43300, Staphylococcus epidermidis ATCC 12228, Enterococcus faecalis ATCC 29212, Micrococcus luteus ATCC 10240, Bacillus subtilis ATCC 6633 and Bacillus cereus ATCC 10876. While, those of Gram-negative bacteria were as follows: Bordetella bronchiseptica ATCC 4617, Escherichia coli ATCC 25922, Klebsiella pneumoniae ATCC 13883, Proteus mirabilis ATCC 12453, Salmonella Typhimurium ATCC 14028 and Pseudomonas aeruginosa ATCC 9027. Moreover, the following fungi belonging to yeasts were used: Candida albicans ATCC 10231, Candida albicans ATCC 2091, Candida parapsilosis ATCC 22019, Candida glabrata ATCC 90030 and Candida krusei ATCC 14243.
(§2) The new compounds WZ1–WZ4 were assayed for both antibacterial and antifungal activity using the broth microdilution method in accordance with the European Committee on Antimicrobial Susceptibility Testing (EUCAST) and Clinical and Laboratory Standards Institute (CLSI) guidelines. The microorganisms were grown at 35 °C for 18–24 h on appropriate media (nutrient agar and Sabouraud for bacteria and fungi, respectively) (BioMaxima S.A., Lublin, Poland). Next, microbial suspensions with an optical density of 0.5 McFarland standard scale (in sterile 0.85% NaCl) were prepared. In turn, the tested compounds were initially diluted at 50 mg/mL in dimethyl sulfoxide (DMSO) and the broth microdilution method was used to assess their minimum inhibitory concentrations (MICs). For these studies, selective broth Mueller-Hinton (MH) (BioMaxima S.A., Lublin, Poland) and RPMI (Roswell Park Memorial Institute) 1640 with MOPS (3-(N-Morpholino)propanesulfonic acid) (Sigma-Aldrich Chemicals, St. Louis, MO, USA) were used for bacteria and fungi, respectively. The antimicrobial effect of compounds WZ1–WZ4 was determined in the concentration range from 2000 to 0.98 µg/mL.
(§3) Then, the microbial suspensions were introduced into each well of the microplate and incubated for 18–24 h at 35 °C. […] The reference drugs ciprofloxacin or vancomycin (against bacteria) and nystatin (against fungi) (Sigma-Aldrich Chemicals, St. Louis, MO, USA) were also used. Next, the values of the minimum bactericidal concentration (MBC) and minimum fungicidal concentration (MFC) of WZ1–WZ4 were assessed. For this purpose, the cultures from each MIC determination well were transferred to a suitable solid medium and incubated under appropriate conditions. The lowest concentrations of compounds without microbial growth were read as MBC or MFC. The studies were performed in triplicate and representative data were gathered.
(§4) In turn, the MBC/MIC or MFC/MIC ratios were used to assess bactericidal/fungicidal (MBC/MIC or MFC/MIC ≤ 4) and bacteriostatic/fungistatic (MBC/MIC or MFC/MIC > 4) effect of these compounds [93].

[2] = test system: Bacillus subtilis ATCC 6633
Description: as §1, §2, §3, §4

[3] = test system: Bordetella bronchiseptica ATCC 4617
Description: as §1, §2, §3, §4

[4] = test system: Candida albicans ATCC 10231
Description: as §1, §2, §3, §4

[5] = test system: Candida albicans ATCC 2091
Description: as §1, §2, §3, §4

[6] = test system: Candida glabrata ATCC 90030
Description: as §1, §2, §3, §4

[7] = test system: Candida krusei ATCC 14243
Description: as §1, §2, §3, §4

[8] = test system: Candida parapsilosis ATCC 22019
Description: as §1, §2, §3, §4

[9] = test system: Enterococcus faecalis ATCC 29212
Description: as §1, §2, §3, §4

[10] = test system: Escherichia coli ATCC 25922
Description: as §1, §2, §3, §4

[11] = test system: Klebsiella pneumoniae ATCC 13883
Description: as §1, §2, §3, §4

[12] = test system: Micrococcus luteus ATCC 10240
Description: as §1, §2, §3, §4

[13] = test system: Proteus mirabilis ATCC 12453
Description: as §1, §2, §3, §4

[14] = test system: Pseudomonas aeruginosa ATCC 9027
Description: as §1, §2, §3, §4

[15] = test system: Salmonella Typhimurium ATCC 14028
Description: as §1, §2, §3, §4

[16] = test system: Staphylococcus aureus ATCC 25923
Description: as §1, §2, §3, §4

[17] = test system: Staphylococcus aureus ATCC 29213
Description: as §1, §2, §3, §4

[18] = test system: Staphylococcus aureus ATCC 43300
Description: as §1, §2, §3, §4

[19] = test system: Staphylococcus epidermidis ATCC 12228
Description: as §1, §2, §3, §4

[20] = ATCC29213, Staphylococcus aureus ATCC 29213
[21] = ATCC43300, Staphylococcus aureus ATCC 43300

Which results are given for `CCCCNC(=S)NNS(=O)(=O)c1ccccc1` [WZ2, 2-(Benzenesulfonyl)-N-Butylhydrazine-1-Carbothioamide]?
MBC/MIC [1]: 2; MBC ([1]; ATCC10876): 2000 µg/mL (≈ 6.96 mM); MIC ([1]; ATCC10876): 1000 µg/mL (≈ 3.48 mM); MBC/MIC [2]: > 2; MBC ([2]; ATCC6633): > 2000 µg/mL; MIC ([2]; ATCC6633): 1000 µg/mL (≈ 3.48 mM); MBC/MIC [3]: > 1; MBC ([3]; ATCC4617): > 2000 µg/mL; MIC ([3]; ATCC4617): > 2000 µg/mL; MFC/MIC [4]: > 1; MFC ([4]; ATCC10231, read-out: MFC): > 2000 µg/mL; MIC ([4]; ATCC10231, read-out: MIC): 2000 µg/mL (≈ 6.96 mM); MFC/MIC [5]: > 1; MFC ([5]; ATCC2091, read-out: MFC): > 2000 µg/mL; MIC ([5]; ATCC2091, read-out: MIC): 2000 µg/mL (≈ 6.96 mM); MFC/MIC [6]: > 1; MFC ([6]; Nakaseomyces glabratus, ATCC90030, read-out: MFC): > 2000 µg/mL; MIC ([6]; Nakaseomyces glabratus, ATCC90030, read-out: MIC): > 2000 µg/mL; MFC/MIC [7]: > 1; MFC ([7]; Pichia kudriavzevii, ATCC14243, read-out: MFC): > 2000 µg/mL; MIC ([7]; Pichia kudriavzevii, ATCC14243, read-out: MIC): 2000 µg/mL (≈ 6.96 mM); MFC/MIC [8]: > 1; MFC ([8]; Lodderomyces parapsilosis, ATCC22019, read-out: MFC): > 2000 µg/mL; MIC ([8]; Lodderomyces parapsilosis, ATCC22019, read-out: MIC): 2000 µg/mL (≈ 6.96 mM); MBC ([9]; ATCC29212, Enterococcus faecalis ATCC 29212, read-out: MBC): > 2000 µg/mL; MIC ([9]; ATCC29212, Enterococcus faecalis ATCC 29212, read-out: MIC): > 2000 µg/mL; bioactivity class ([9]; E. faecalis): no bioactivity (no bioactivity (MIC > 1000 µg/mL)); MBC/MIC ([9]; Enterococcus faecalis ATCC 29212): > 1; MBC/MIC [10]: > 1; MBC ([10]; ATCC25922): > 2000 µg/mL; MIC ([10]; ATCC25922): > 2000 µg/mL; MBC/MIC [11]: > 1; MBC ([11]; ATCC13883): > 2000 µg/mL; MIC ([11]; ATCC13883): > 2000 µg/mL; MBC/MIC [12]: 2; MBC ([12]; ATCC10240): 2000 µg/mL (≈ 6.96 mM); MIC ([12]; ATCC10240): 1000 µg/mL (≈ 3.48 mM); MBC/MIC [13]: > 1; MBC ([13]; ATCC12453): > 2000 µg/mL; MIC ([13]; ATCC12453): > 2000 µg/mL; MBC/MIC [14]: > 1; MBC ([14]; ATCC9027): > 2000 µg/mL; MIC ([14]; ATCC9027): > 2000 µg/mL; MBC/MIC [15]: > 1; MBC ([15]; Salmonella enterica): > 2000 µg/mL; MIC ([15]; Salmonella enterica): > 2000 µg/mL; MBC/MIC [16]: > 2; MBC ([16]; ATCC25923): > 2000 µg/mL; MIC ([16]; ATCC25923): 1000 µg/mL (≈ 3.48 mM); MBC [17, 20]: > 2000 µg/mL; MIC [17, 20]: 2000 µg/mL (≈ 6.96 mM); bioactivity class ([17]; S. aureus ATCC 29213): no bioactivity (no bioactivity (MIC > 1000 µg/mL)); MBC/MIC ([17]; Staphylococcus aureus ATCC 29213): > 1; MBC [18, 21]: > 2000 µg/mL; MIC [18, 21]: 2000 µg/mL (≈ 6.96 mM); bioactivity class ([18]; S. aureus ATCC 43300): no bioactivity (no bioactivity (MIC > 1000 µg/mL)); MBC/MIC ([18]; Staphylococcus aureus ATCC 43300): > 1; MBC/MIC [19]: > 2; MBC ([19]; ATCC12228): > 2000 µg/mL; MIC ([19]; ATCC12228): 1000 µg/mL (≈ 3.48 mM)
